# Measurements as given in US9593146B2, “CD44v6-derived peptides for treating metastasizing cancer” (AMCURE GMBH, priority 2012, dated 2017).
# Legend:
# Met = experiment: HGF induced activation of Met and Erk in L3.6pl, HeLa and HT29 cells; assay type: cell-based, human; conditions: added before induction with HGF
# Procedure: FIG. 14: A: Activation of Met and signal transduction induced by HGF depends on CD44v6 in L3.6pl cells. L3.6pl cells were treated with the human v6 peptide (human v6 14mer) or the rat v6 peptide as control prior to induction with 10 ng/ml HGF. Activation of Met and ERK was determined in western blot. The numbers refer to the fold induction. The experiment was repeated at least 5 times. B: Activation of c-Met and signal transduction induced by HGF depends on CD44v6 HeLa cells. Starved HeLa cells respectively HT29 cells were incubated with the v6 peptide (human v6 14mer) or a control peptide for 10 minutes at 37° C. and then induced with 25 ng/ml of HGF for the indicated time points. Cells were then either lysed and the lysates were subjected to Western Blot analysis for phospho-Met and Met. C: Activation of c-Met and signal transduction induced by HGF depends on CD44v6 in HT29 cells. HGF-induced c-Met and Erk phosphorylation in HT29 was determined as described above using phospho-specific antibodies. […]
# The contribution of CD44v6 to Met signaling in the human epithelial pancreatic cancer cells L3.6pl (derived from Colo 357), the cervix carcinoma cells HeLa and the colon cancer cells HT29 were analysed using the CD44v6 peptide (v6 14mer; v6 5mer tested as well, data not shown).
# HUVEC = HUVEC spheroid sprouting assay; assay type: cell-based, human; conditions: 100 ng/ml peptide, VEGFs 40 ng/ml, 48 h
# Procedure: FIG. 19: Spheroids of HUVECs (750 cells) were generated in hanging drops. They were suspended in Endothelial Cell Growth Medium containing 1 mg/ml rat tail collagen I and 0.6% (wt/vol) methylcellulose and distributed in 48-well plates (30 spheroids/well). After solidification at 37° C. the mixture was overlaid with Endothelial Cell Growth Medium containing 100 ng/ml v6 peptide (human v6 14mer) or control peptide and VEGFs (40 ng/ml). Pictures were taken 48 h later and sprouting was quantified with the computer program ImageJ.
# Clusters of HUVEC cells, so-called spheroids, were generated in hanging drops and embedded in a three-dimensional collagen matrix. They were overlaid with medium containing the blocking substances and the growth factors. Activated by the growth factors VEGF-A165 and VEGF-A121 the ECs started to grow out of the spheroids (FIG. 19). […] Sprouting of the ECs was quantified by analysing the total length of all sprouts originating from one spheroid.
# 4T1 cells = experiment: Syngeneic orthotopic 4T1 mammary carcinoma model in BALB/c mice; assay type: in vivo
# Procedure: FIG. 26: Treatment with the v6 14mer reduces growth of the primary tumor and macroscopic metastases formation in the lung. 1×10^6 murine 4T1 cells per mouse were diluted in 50 μl RPMI plus 50 μl Matrigel and injected into the 6th mammary fat pad of 10 female BALB/c mice. One week after the injection, the mice were either injected intraperitoneally with 20 μg of the murine v6 14mer dissolved in 100 μl PBS or with 20 μg of control peptide (rat v6 14mer) dissolved in 100 μl PBS. The injection was performed 3 times per week for two weeks. After 2 weeks the mice were sacrificed and the primary tumors and the lungs were extracted. A: Overall reduction of the tumor volume in the v6 peptide treated group. B: Immunofluorescent staining for the endothelial marker CD34 to monitor vascularization of the primary tumor. Graphic representation of the reduction of the total vessel area. C: The v6 peptides led to a reduction in macroscopic lung metastasis. The black arrows mark examples for metastases. The scale bar corresponds to a size of 1 cm. Statistical evaluation of the average number of lung metastases. Significance was calculated using Student's t test: p*<0.01; **p<0.005. Each group consisted of 5 animals.
# The effect of the CD44v6 14mer was tested in a syngeneic mouse model by orthotopic injection of the murine mammary carcinoma cells 4T1. 4T1 cells were originally derived from a spontaneously arising BALB/c mammary tumor. When introduced orthotopically, 4T1 cells grow rapidly at the primary site and form metastases in the lung and the lymph nodes within a period of 3-6 weeks. The tumor growth and metastatic spreading of 4T1 cells in BALB/c mice very closely mimics human breast cancer stage IV.
# The 4T1 cells were injected orthotopically into the 6th mammary fat pad. Two groups of 5 animals each with the implanted tumor cells were then used for the experiment. One group was treated with the v6 14mer peptide, one with a control (rat) peptide. The injection of the peptide was performed 3 times per week and planned for three to four weeks but had to be stopped after two weeks as the control group suffered from large tumors.
# ErbB receptors = experiment: ErbB ligand induced Erk-kinase phosphorylation in HT29 cells; assay type: cell-based, human; conditions: HT29, 100 ng/ml peptide 5 min, 20 ng/ml ligand
# Procedure: FIG. 15: In contrast to EGF and ER, induction of the ErbB-receptors via TGF-α, BC, Her, HB-EGF or AR is completely independent of CD44v6. Serum-starved HT29 cells were pre-incubated for 5 min with 100 ng/ml of a CD44v6-specific peptide (human v6 14mer) or a control peptide. Afterwards the cells were induced with 20 ng/ml of various ErbB ligands as indicated. The cell lysates were resolved by SDS-PAGE. Western-blotting was used to detect ErbB ligands-induced Erk-kinase phopshorylation.
# For this purpose HT29 cells were serum-starved for 24 hours and pre-treated with the v6-specific or a control peptide. They were then induced with the indicated ErbB ligands. Erk-kinase phosphorylation was used as a read-out for receptor activation. All ligands could activate the Erk-kinase. […] These ligands are independent of CD44v6 for their induction of the ErbB receptors. This is especially striking, since EGF and TGF-α address the same receptor pairs (ErbB1/1 or ErbB1/2).
# HUVECs and HAOECs = experiment: Scratch closure assay, EC migration; assay type: cell-based, human; conditions: 24 hours
# Procedure: FIG. 18: CD44v6 is required for EC migration. HUVECs and HAOECs were grown to confluence and a wound was made into the cell monolayer with a sterile pipette tip. After washing the cells were incubated with the antibody against CD44v6, the CD44v6 peptide (human v614mer) or the control peptide as indicated. The ligands HGF, VEGF-A165 or VEGF-A121 were added and migration of the ECs was analysed after 24 hours. The numbers indicate the percentage of free area in the scratch area quantified by the computer program ImageJ.
# In this assay the requirement for CD44v6 for cell migration was tested. In a scratch closure assay migration of either vein or artery ECs was tested. These cells were grown to confluence and a scratch was made into the confluent monolayer using a sterile pipette-tip. The cells lining the scratch border started to migrate into this empty space in order to close the gap. In presence of either HGF, VEGF-A165, or VEGF-A121 the cells migrated faster than in absence of the ligands and the scratch was closed within one day.
# [1] = murine v6 14mer 20 μg i.p. 3 times per week for two weeks
sequence,measurement,setting,value
"KEQWFGNRWHEGYR [human 14mer, human CD44v6 14mer peptide]",activation of Met and of its downstream target Erk,Met,able to prevent activation of Met and of its downstream target Erk
same,"sprouting in response to VEGF-A (VEGF-A165, VEGF-A121)",HUVEC,blocked completely
same,macroscopic lung metastases per animal,"4T1 cells; 20 μg i.p. 3 times per week for two weeks, 5 animals per group","three animals showed no macroscopic metastases at all, whereas two animals had only one metastase"
same,primary tumor size,4T1 cells; [1],significant decrease of tumor size
same,total number of blood vessels (anti-CD34 staining),4T1 cells; [1],significantly reduced
same,"AR, BC, HB-EGF and TGF-α-induced activation of the ErbB receptors",ErbB receptors,could not be inhibited
same,EGF- and ER-dependent Erk phosphorylation,ErbB receptors,inhibited
same,"EC migration induced by HGF, VEGF-A165 or VEGF-A121",HUVECs and HAOECs,reduced to basal levels
